What all share (assay type): in vivo
Experiment [1] concerns diamondback moth (Plutella xylostella (L.)). Nature of the experiment: Test A: control of diamondback moth, foliar spray on mustard plant. The conditions noted are these: neonate larvae, assessed after 6 days. As to the method: (§1) Test compounds were formulated using a solution containing 10% acetone, 90% water and 300 ppm X-77® Spreader Lo-Foam Formula non-ionic surfactant containing alkylarylpolyoxyethylene, free fatty acids, glycols and isopropanol (Loveland Industries, Inc. Greeley, Colo., USA). The formulated compounds were applied in 1 mL of liquid through a SUJ2 atomizer nozzle with ⅛ JJ custom body (Spraying Systems Co. Wheaton, Ill., USA) positioned 1.27 cm (0.5 inches) above the top of each test unit. Test compounds were sprayed at the rates indicated, and each test was replicated three times.
For evaluating control of diamondback moth (Plutella xylostella (L.)) the test unit consisted of a small open container with a 12-14-day-old mustard plant inside. This was pre-infested with ˜50 neonate larvae that were dispensed into the test unit via corn cob grits using an inoculator. The larvae moved onto the test plant after being dispensed into the test unit.
Test compounds were formulated and sprayed at 250 and/or 50 ppm. After spraying of the formulated test compound, each test unit was allowed to dry for 1 hour and then a black, screened cap was placed on top. The test units were held for 6 days in a growth chamber at 25° C. and 70% relative humidity. Plant feeding damage was then visually assessed based on foliage consumed, and larvae were assessed for mortality.

The subject of experiment [2] is Western Flower Thrips (Frankliniellla occidentalis (Pergande)). Nature of the experiment: Test F: control of Western Flower Thrips through contact and/or systemic means. The settings on record: sprayed at 250 ppm; Soleil bean plant, adult thrips; held for 6 days. As for the experimental part: as §1
For evaluating control of the Western Flower Thrips (Frankliniellla occidentalis (Pergande)) through contact and/or systemic means, the test unit consisted of a small open container with a 5-7-day-old Soleil bean plant inside.
Test compounds were formulated and sprayed at 250 ppm. After spraying, the test units were allowed to dry for 1 hour, and then 22-27 adult thrips were added to each unit. A black, screened cap was placed on top, and the test units were held for 6 days at 25° C. and 45-55% relative humidity.

Experiment [3] deals with corn planthopper (Peregrinus maidis (Ashmead)). As to the kind of experiment: Test C: control of corn planthopper through contact and/or systemic means. The settings on record: 144 h, corn (maize) plant, nymphs, assessed after 6 days; for mortality at 250 ppm: sprayed at 250 ppm. As for the experimental part: as §1
For evaluating control of corn planthopper (Peregrinus maidis (Ashmead)) through contact and/or systemic means, the test unit consisted of a small open container with a 3-4-day-old corn (maize) plant inside. White sand was added to the top of the soil prior to application of the test compound.
Test compounds were formulated and sprayed at 250 and/or 50 ppm. After spraying of the formulated test compound, the test units were allowed to dry for 1 h before they were post-infested with ˜15-20 nymphs (18-to-21-day-old). A black, screened cap was placed on the top of each test unit, and the test units were held for 6 days in a growth chamber at 22-24° C. and 50-70% relative humidity. Each test unit was then visually assessed for insect mortality.

Experiment [4] deals with potato leafhopper (Empoasca fabae (Harris)). As to the kind of experiment: Test D: control of potato leafhopper through contact and/or systemic means. The conditions noted are these: 144 h, Soleil bean plant, adults, assessed after 6 days; for mortality at 50 ppm: sprayed at 50 ppm; for mortality at 250 ppm: sprayed at 250 ppm. As for the experimental part: as §1
For evaluating control of potato leafhopper (Empoasca fabae (Harris)) through contact and/or systemic means, the test unit consisted of a small open container with a 5-6-day-old Soleil bean plant (primary leaves emerged) inside. White sand was added to the top of the soil, and one of the primary leaves was excised prior to application of the test compound.
Test compounds were formulated and sprayed at 250 and/or 50 ppm. After spraying of the formulated test compound, the test units were allowed to dry for 1 hour before they were post-infested with 5 potato leafhoppers (18-to-21-day-old adults). A black, screened cap was placed on the top of the test unit, and the test units were held for 6 days in a growth chamber at 20° C. and 70% relative humidity. Each test unit was then visually assessed for insect mortality.

The test system of experiment [5] is fall armyworm (Spodoptera frugiperda (J. E. Smith)). As to the kind of experiment: Test B: control of fall armyworm, foliar spray on corn (maize) plant. The settings on record: 1-day-old larvae, assessed after 6 days. As for the experimental part:
as §1
For evaluating control of fall armyworm (Spodoptera frugiperda (J. E. Smith)) the test unit consisted of a small open container with a 4-5-day-old corn (maize) plant inside. This was pre-infested with 10-15 1-day-old larvae on a piece of insect diet.
Test compounds were formulated and sprayed at 250 and/or 50 ppm. After spraying of the formulated test compound, the test units were maintained in a growth chamber for 6 days at 25° C. and 70% relative humidity. Plant feeding damage was then visually assessed based on foliage consumed, and larvae were assessed for mortality.

Experiment [6] relates to green peach aphid (Myzus persicae (Sulzer)). As to the kind of experiment: Test E: control of green peach aphid through contact and/or systemic means. The conditions noted are these: 144 h, radish plant, assessed after 6 days; for mortality at 250 ppm: sprayed at 250 ppm. As for the experimental part:
as §1
For evaluating control of green peach aphid (Myzus persicae (Sulzer)) through contact and/or systemic means, the test unit consisted of a small open container with a 12-15-day-old radish plant inside. This was pre-infested by placing on a leaf of the test plant 30-40 aphids on a piece of leaf excised from a culture plant (cut-leaf method). The aphids moved onto the test plant as the leaf piece desiccated. After pre-infestation, the soil of the test unit was covered with a layer of sand.
Test compounds were formulated and sprayed at 250 and/or 50 ppm. After spraying of the formulated test compound, each test unit was allowed to dry for 1 hour and then a black, screened cap was placed on top. The test units were held for 6 days in a growth chamber at 19-21° C. and 50-70% relative humidity. Each test unit was then visually assessed for insect mortality.

`FC(F)(F)c1ccnc(-n2cc(CN3CCC(C(F)(F)F)CC3)c(C3CCCC3)n2)c1` [Compound 25, 2-[3-cyclopentyl-4-[[4-(trifluoromethyl)-1-piperidinyl]methyl]-1H-pyrazol-1-yl]-4-(trifluoromethyl)pyridine]: the “control efficacy (40% or less feeding damage and/or 100% mortality)” value in experiment [1] (sprayed at 50 ppm), in experiment [1] (sprayed at 250 ppm), in experiment [5] (sprayed at 50 ppm) and in experiment [5] (sprayed at 250 ppm) was “very good to excellent levels of control efficacy” throughout. The “control efficacy (30% or less plant damage and/or 100% mortality)” value in experiment [2] is “very good to excellent levels of control efficacy”. Further, the mortality at 250 ppm in experiment [3], in experiment [4] and in experiment [6] was at least 80% in each case. In addition, the mortality at 50 ppm in experiment [4] was at least 80%.

With `N#CC1CCN(Cc2cn(-c3cc(C(F)(F)F)ccn3)nc2C2CCCC2)CC1` [Compound 26, 1-[[3-cyclopentyl-1-[4-(trifluoromethyl)-2-pyridinyl]-1H-pyrazol-4-yl]methyl]-4-piperidinecarbonitrile], the “control efficacy (40% or less feeding damage and/or 100% mortality)” value in experiment [1] (sprayed at 50 ppm), in experiment [1] (sprayed at 250 ppm), in experiment [5] (sprayed at 50 ppm) and in experiment [5] (sprayed at 250 ppm) was “very good to excellent levels of control efficacy” each time. In addition, in experiment [2], the “control efficacy (30% or less plant damage and/or 100% mortality)” value is “very good to excellent levels of control efficacy”. Moreover, the mortality at 250 ppm in experiment [4] and in experiment [6] was at least 80% each time. This compound also returned a mortality at 50 ppm in experiment [6] (sprayed at 50 ppm) of at least 80%.

As to `N#CC1CCN(Cc2cn(-c3ccc(Cl)c(Cl)c3)nc2C2CCC2)CC1` [Compound 27], the “control efficacy (40% or less feeding damage and/or 100% mortality)” value in experiment [1] (sprayed at 50 ppm), in experiment [1] (sprayed at 250 ppm), in experiment [5] (sprayed at 50 ppm) and in experiment [5] (sprayed at 250 ppm) was “very good to excellent levels of control efficacy” each time. The “control efficacy (30% or less plant damage and/or 100% mortality)” value in experiment [2] is given as “very good to excellent levels of control efficacy”.

Consider `CC(C)c1nn(-c2cc(C(F)(F)F)ccn2)cc1CN1CCC(C(F)(F)F)CC1` [Compound 54, 2-[3-(1-methylethyl)-4-[[4-(trifluoromethyl)-1-piperidinyl]methyl]-1H-pyrazol-1-yl]-4-(trifluoromethyl)pyridine], for which the mortality at 50 ppm in experiment [3] (sprayed at 50 ppm) and in experiment [4] was at least 80% each time. Besides, the mortality at 250 ppm in experiment [3] and in experiment [4] was at least 80% each time.

These data come from patent US10112906B2, “1-aryl-3-alkylpyrazole insecticides” (E. I. DU PONT DE NEMOURS AND COMPANY, priority 2013, dated 2018).
